Assay results reported in the supplement of paper PMC10883282.

Columns and labels:
Assay in all cases: relative viability vs DMSO control (72 h) (fraction); higher = more viable cells
KHOS-240S = test system: KHOS-240S
Outline: (§1)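 Relative viability was measured with ATPLite and expressed as percent growth, averaged across up to triplicate wells. Sarcoma cell lines had been seeded in 384-well plates to reach 80–90% confluence, dosed after 24 h, and incubated 72 h at 37 °C, 5% CO2. All data were rescaled on a scale where 1 is full and 0 is none.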

RD-ES = test system: RD-ES
Outline: as §1

RD = test system: RD
Outline: as §1

SK-ES-1 = test system: SK-ES-1
Outline: as §1

SW982 = test system: SW982
Outline: as §1

NC(=O)c1cnc2[nH]ccc2c1N[C@@H]1[C@@H]2CC3C[C@H]1C[C@@](O)(C3)C2 [Peficitinib]
relative viability
Settings	KHOS-240S	RD	RD-ES	SK-ES-1	SW982
0.00017 µM	1.01	1.03	0.973	0.984	1.03
0.00051 µM	1.05	1.04	0.99	1.01	1.03
0.00152 µM	1.04	1.04	0.968	1.02	1.016
0.00457 µM	1.05	1.04	0.963	0.97	1.03
0.01372 µM	1.06	1.03	0.984	0.9884	1.02
0.04115 µM	1.07	1.05	0.981	1.02	1.05
0.1235 µM	1.05	1.07	1	1.02	1.032
0.3704 µM	1.04	1.1	1.01	1.04	0.986
1.111 µM	1.03	1.117	1	0.989	0.934
3.333 µM	0.837	1.099	0.986	0.796	0.751
10 µM	0.498	1.01	0.227	0.102	0.397

COc1cc(Nc2c(C#N)cnc3cc(OCCCN4CCN(C)CC4)c(OC)cc23)c(Cl)cc1Cl [Bosutinib]
relative viability
Settings	KHOS-240S	RD	RD-ES	SK-ES-1	SW982
0.00017 µM	1.07	1.11	0.965	1.05	1.05
0.00051 µM	1.08	1.11	0.981	1.06	1.08
0.00152 µM	1.08	1.12	0.987	1.06	1.08
0.00457 µM	1.1	1.11	0.972	1.07	1.08
0.01372 µM	1.08	1.11	0.98	1	1.09
0.04115 µM	1.06	1.14	0.974	1.02	1.08
0.1235 µM	1.04	1.15	0.941	0.935	1.05
0.3704 µM	0.962	1.12	0.906	0.732	0.816
1.111 µM	0.734	0.88	0.715	0.482	0.511
3.333 µM	0.49	0.665	0.472	0.303	0.359
10 µM	0.0326	0.0202	0.0125	0.136	0.0126
